One data set deals with T1, KtzS (Kutzneria sp. 744, UniProt A8CF73).
T1 sequence (A8CF73 1-174): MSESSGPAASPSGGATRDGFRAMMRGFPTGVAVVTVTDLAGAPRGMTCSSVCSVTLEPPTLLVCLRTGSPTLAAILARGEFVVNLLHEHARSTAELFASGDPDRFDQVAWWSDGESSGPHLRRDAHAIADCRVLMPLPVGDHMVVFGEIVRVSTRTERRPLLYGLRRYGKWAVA
The experiment in a line: flavin reductase activity of purified enzyme. In kind it is biochemical.

Substrate in data set [1]: N[C@@H](Cc1c[nH]c2ccccc12)C(=O)O
The experiment in a line: coupled halogenation assay with flavin reductase. In kind it is biochemical, Kutzneria sp. 744. The conditions noted are these: FAD, NADH, excess KtzS or SsuE, chloride, O2.

Substrate in data set [2]: N[C@@H](Cc1c[nH]c2c(Cl)cccc12)C(=O)O
The experiment in a line: coupled halogenation assay with flavin reductase. In kind it is biochemical, Kutzneria sp. 744. The conditions noted are these: FAD, NADH, excess KtzS or SsuE, chloride, O2.

On to `Cc1cc2nc3c(=O)[nH]c(=O)nc-3n(C[C@H](O)[C@H](O)[C@H](O)COP(=O)(O)OP(=O)(O)OC[C@H]3O[C@@H](n4cnc5c(N)ncnc54)[C@H](O)[C@@H]3O)c2cc1C` [FAD], for which, on KtzS (NADH as reductant), the “flavin reductase activity of purified enzyme” value is listed as “shown to be an NADH-utilizing FAD reductase”.

With `NC(=O)C1=CN([C@@H]2O[C@H](COP(=O)(O)OP(=O)(O)OC[C@H]3O[C@@H](n4cnc5c(N)ncnc54)[C@H](O)[C@@H]3O)[C@@H](O)[C@H]2O)C=CC1` [NADH], at KtzS (FAD as acceptor), the “flavin reductase activity of purified enzyme” value is “shown to be an NADH-utilizing FAD reductase”.

B1: KtzR (Kutzneria sp. 744) (protein)
chain: MVIVGGGTAGWMTAAYLKTAFGDRLSITVVESSRIGTIGVGEATFSDIQHFFQFLNLREQDWMPACNATYKLGIRFENWRHVGHHFYQPFEQIRPVYGFPLTDWWLHDAPTDRFDTDCFVMPNLCEAGRSPRHLDGTLADEDFVEEGDELANRTMSEHQGKSQFPYAYHFEAALLAKFLTGYAVDRGVEHVVDDVLDVRLDQRGWIEHVVTAEHGEIHGDLFVDCTGFRGLLLNKALGVPFVSYQDTLPNDSAVALQVPLDMQRRGIVPNTTATAREAGWIWTIPLFGRVGTGYVYAKDYLSPEEAERTLREFVGPAAADVEANHIRMRIGRSQESWRNNCVAIGLSSGFVEPLESTGIFFIHHAIEQLVKHFPAADWNPKSRDMYNSAVAHVMDGIREFLVIHYRGAARADNQYWRDTKTRPLPDGLAERIECWQTQLPDTETIYPYYHGLPPYSYMCILMGGGAIRTPASAALALTDQGAAQKEFAAVRDRAAQLRDTLPSHYEYLARMRGLDV
One may read the Km as the concentration of substrate that gives half-maximal velocity. On to B1, for which the Michaelis constant (Km) in data set [1] is reported as 808 µM; in data set [2], 114 µM.
